Experiment: Inhibition of HAP dissolution (calcium in supernatant by ICP)
Type: physicochemical
Conditions: compound 1 mM; supersaturated calcium phosphate, 0.05 M Tris pH 7.4, 37° C., 24 h
Description: The test based on a slightly modified method of Francis et al. (Francis, M. D. The inhibition of calcium hydroxyapatite crystal growth by polyphosphonates and polyphosphates. Calcif Tissue Res 1969, 3, 151-162). The extent of HAP formation in the presence of inhibitors was studied in supersaturated calcium phosphate solutions.
The final concentration of calcium (CaCl2.2H2O) and phosphate (K2HPO4) ions in the incubation solutions was 3.87 mM and 2.32 mM, respectively, yielding a molar ratio of [Ca]/[PO4]=1.67, as in hydroxyapatite (HAP). Each salt solution was prepared in 0.05 M Tris buffer, pH 7.4. The tested BP compound (1 mM) was dissolved in […]. 5 ml of 7.74 mM CaCl2.2H2O solution containing the BP compound and 5 ml of the 4.64 mM K2HPO4 were mixed in borosilicate glass vials (acid and acetone washed). The vials were then placed in a shaker at 37° C. for 24 h. The vials contents were centrifuged (4 min, 4000 rpm) and the supernatants were then separated and analyzed for calcium concentration by ICP Analysis.

C=Cc1ccc(C(O)(P(=O)([O-])[O-])P(=O)([O-])O)cc1.[Na+].[Na+].[Na+] [St-BP monomer, Trisodium hydroxyl (4-vinylphenyl) methelenebisphosphonic acid]
Calcium ions concentration in filtrate (% of initial concentration): 45 % of initial concentration

From patent publication US10508126B2, “Bisphosphonates vinylic monomers and polymers and uses thereof” (BAR-ILAN UNIVERSITY, priority 2012, dated 2019)
